From patent US9757399B2, “Butyrylcholinesterase inhibitors” (priority 2006, dated 2017)

What was measured:
butyrylcholinesterase [1] = target: T1, butyrylcholinesterase (Equus caballus, UniProt P81908); experiment: biochemical; assay type: biochemical, horse; settings: for Change in Absorbance at 412 nm/Minute (Normalized): 10^−7M, normalized to 2-chlorophenyl-di-n-butyl phosphate set as 1.0; for Change in Absorbance at 412 nm/Minute (Not Normalized): compound final concentration 10^−7M; for inhibition at 100 µM: read-out: % inhibition of BuChase
T1 construct: butyrylcholinesterase (from horse serum); purchased Sigma; host or cells: horse serum (natural source)
Experimental: (§1) Cholinesterase activity measurements were performed essentially according to the method of Ellman (Biochemical Pharmacology 7:88-90, 1961). The composition of the assay mixture was 0.1 M sodium phosphate, pH 7.5, 0.033 M DTNB, 0.001 M MgCl2, and 100 μg/mL of BSA containing appropriate amounts of substrate and inhibitor. Each assay was initiated by the addition of substrate and the activity quantified by measuring the formation of the thionitrobenzoate anion at 412 nm at 37° C. Methanol used to solubilize the dialkyl phenyl phosphates [1% (v/v) final concentration] had no inhibitory effect on either enzyme.
. The results were obtained by pre-incubating the enzyme with the compound (final concentration 10^−7M) for various periods of time and measuring the remaining enzyme activity. The results are shown as the change in absorbance at 412 nm/minute. In order to simplify the results from all the compounds, the enzyme activities were normalized to 2-chlorophenyl-di-n-butyl phosphate which was set as 1.0. Since two different preparations of enzyme were used, the normalization procedure would adjust for any differences in the amount of enzyme. […]. In other cases, the compound's inhibitory activity is not as strong and assay conditions were modified to increase the inhibitor concentration.
Table 4: Rates of inactivation of butyrylcholinesterase by exemplary compounds: Change in Absorbance at 412 nm/Minute. (ND=No Data)

[2] = target: T2, Acetylcholinesterase (from electric eel) (Electrophorus electricus, UniProt O42275); experiment: Acetylcholinesterase activity, Ellman assay after pre-incubation with inhibitor; assay type: biochemical; settings: 100 μM compound, 60 minutes at 25° C.
T2 construct: Acetylcholinesterase (from electric eel); purchased Sigma; host or cells: electric eel (natural source)
Experimental: (§2) Acetylcholinesterase (from electric eel), butyrylcholinesterase (from horse serum), DTNB, butyrylthiocholine, acetylthiocholine, and BSA were purchased from Sigma. The dialkyl 2-chlorophenyl (and 4-chlorophenyl) phosphates were solubilized in reagent grade methanol.
as §1
(§3) Butyrylcholinesterase was pre-incubated at room temperature with inhibitor in the assay cocktail minus substrate for varying periods of time at 25° C. Substrate was then added and the activity measured as described above. The relative rates of enzyme inactivation were determined by plotting enzyme activity versus time of pre-incubation with inhibitor. Results were expressed as the rate constant for the rate of enzyme inactivation. In the case of AcChase, results were expressed as the % of activity remaining relative to the enzyme incubated only with solvents.
The first series of experiments determined the effect of the dialkyl 2-chlorophenyl (and 4-chlorophenyl) phosphates on both AcChase and BuChase. None of the compounds had any inhibitory effect on AcChase (See Table 1). In Table 1, AcChase was incubated with 100 μM of the indicated phenyl phosphate for 60 minutes at 25° C. and then assayed as described above. Results were expressed as the % activity relative to enzyme incubated with solvent ±SD (standard deviation).

[3] = target: T3, butyrylcholinesterase (from horse serum) (Equus caballus, UniProt P81908); experiment: Rates of inactivation of butyrylcholinesterase, Ellman assay; assay type: biochemical; settings: inhibitor at 10^−4M
T3 construct: butyrylcholinesterase (from horse serum); purchased Sigma; host or cells: horse serum (natural source)

[4] = target: T3, butyrylcholinesterase (from horse serum); experiment: as above; assay type: biochemical; settings: for effect on BuChase activity under standard conditions: standard conditions (100 nM inhibitor); for k, rate constant of inactivation of butyrylcholinesterase ± S.E.M: 100 nM inhibitor, 25° C.
Experimental: as §2, §1, §3
. […] In Table 2, BuChase was incubated for increasing periods of time at 25° C. with 100 nM inhibitor then assayed for activity as described above. Rate constants were calculated from a plot of enzyme activity vs. time of inhibitor exposure. […]. Slopes were calculated by linear regression analysis.

acetylcholinesterase = target: T4, acetylcholinesterase (Electrophorus electricus, UniProt O42275); experiment: Native gel electrophoresis activity stain, AcChase; assay type: biochemical, electric eel; settings: pre-incubation with inhibitor
T4 construct: Acetylcholinesterase (from electric eel); purchased Sigma; host or cells: electric eel (natural source)
Experimental: (§4) Enzyme activity was also measured by native gel electrophoresis. For cholinesterase activity, proteins (10 μg of both acetylcholinesterase and butyrylcholinesterase) were fractionated on Novex precast 10% Tris glycine gels (Invitrogen). Enzyme activity was detected by first incubating the gels in a solution of 5 mM substrate then staining with a solution of copper sulfate/potassium ferricyanide.
(§5) Using native gel electrophoresis, both AcChase and BuChase activity was detected. Pre-incubation of AcChase with di-ethyl 2-chlorophenyl phosphate had no effect on AcChase activity (FIG. 1).

butyrylcholinesterase [5] = target: T1, butyrylcholinesterase; experiment: Native gel electrophoresis activity stain, BuChase; assay type: biochemical, horse; settings: pre-incubation with inhibitor
Experimental: as §4, §5

butyrylcholinesterase [6] = target: T1, butyrylcholinesterase; experiment: Phosphorylation of BuChase by 14C-labeled inhibitor, autoradiography; design: species or system horse; settings: 14C-labeled compound, native gel
Experimental: The cholinesterases were pre-incubated with ^14C-di-ethyl-2-chlorophenyl phosphate and then fractionated by native gel electrophoresis as described above. The proteins were fixed in the gel with 10% acetic acid/30% methanol. The fixative was removed and replaced with 100 mL of EN^3HANCE. The gel was incubated for 60 minutes at room temperature with gentle agitation and then placed in 5% PEG and incubated for 30 minutes at room temperature with gentle agitation. The gel was then dried down on a piece of 3 MM filter paper, exposed to X-ray film at −80° C. for 2 weeks, and then developed.

T1 sequence (P81908 whole entry): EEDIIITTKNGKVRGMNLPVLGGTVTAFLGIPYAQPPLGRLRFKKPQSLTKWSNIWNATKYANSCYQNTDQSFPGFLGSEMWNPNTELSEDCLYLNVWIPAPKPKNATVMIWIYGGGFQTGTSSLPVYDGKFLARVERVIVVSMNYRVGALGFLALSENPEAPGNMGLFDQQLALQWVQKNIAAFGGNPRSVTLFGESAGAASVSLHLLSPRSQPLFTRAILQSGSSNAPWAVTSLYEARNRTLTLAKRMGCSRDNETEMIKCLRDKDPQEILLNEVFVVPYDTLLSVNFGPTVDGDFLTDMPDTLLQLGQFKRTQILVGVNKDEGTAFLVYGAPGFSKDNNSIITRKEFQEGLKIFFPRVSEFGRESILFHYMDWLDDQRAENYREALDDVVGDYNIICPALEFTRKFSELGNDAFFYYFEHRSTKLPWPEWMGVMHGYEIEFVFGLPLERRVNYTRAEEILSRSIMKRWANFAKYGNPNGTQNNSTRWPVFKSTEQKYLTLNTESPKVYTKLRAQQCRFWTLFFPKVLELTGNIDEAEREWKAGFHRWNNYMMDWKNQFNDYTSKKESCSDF
T3 sequence (P81908 whole entry): as above
T2 sequence (O42275 24-633): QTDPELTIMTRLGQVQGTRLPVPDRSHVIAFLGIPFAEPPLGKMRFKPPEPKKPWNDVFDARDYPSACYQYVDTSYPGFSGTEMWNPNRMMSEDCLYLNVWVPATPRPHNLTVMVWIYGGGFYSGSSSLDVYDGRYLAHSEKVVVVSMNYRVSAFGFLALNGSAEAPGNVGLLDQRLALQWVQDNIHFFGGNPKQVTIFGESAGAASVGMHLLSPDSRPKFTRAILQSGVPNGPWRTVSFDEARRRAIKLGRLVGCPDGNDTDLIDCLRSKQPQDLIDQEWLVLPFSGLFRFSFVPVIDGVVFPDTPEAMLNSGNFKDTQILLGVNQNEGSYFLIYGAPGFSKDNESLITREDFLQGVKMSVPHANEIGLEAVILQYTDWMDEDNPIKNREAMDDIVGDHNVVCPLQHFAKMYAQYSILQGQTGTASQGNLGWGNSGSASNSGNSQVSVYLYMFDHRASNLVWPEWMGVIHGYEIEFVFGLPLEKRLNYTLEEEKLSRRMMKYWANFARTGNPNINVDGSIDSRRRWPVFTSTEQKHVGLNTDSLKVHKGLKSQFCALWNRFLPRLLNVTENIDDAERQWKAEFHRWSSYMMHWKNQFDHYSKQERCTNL
T4 sequence (O42275 24-633): as above

CCCCP(=O)(CCCC)Oc1ccccc1Cl
Change in Absorbance at 412 nm/Minute (Normalized) (butyrylcholinesterase [1]): 1.018
Change in Absorbance at 412 nm/Minute (Not Normalized) (butyrylcholinesterase [1]): 0.684

CCCCOP(=O)(OCCCC)Oc1cccc([N+](=O)[O-])c1
% Inhibition of BuChase after 2 minutes (butyrylcholinesterase [1]; standard conditions (10^−7M), 2 minutes): 100%
% Inhibition of BuChase, immediate (butyrylcholinesterase [1]; standard conditions (10^−7M)): 83%

CCCCOP(=O)(OCCCC)Oc1ccc(Cl)cc1Cl
% inhibition of BuChase after 1 minute (butyrylcholinesterase [1]; standard conditions (10^−7M), 1 minute): 92% inhibition after 1 minute under standard conditions

COP(=O)(OC)Oc1ccccc1Cl [Di-methyl-, 2-Chlorophenyl dimethyl phosphate]
% Activity ± SD (acetylcholinesterase activity relative to enzyme incubated with solvent) [2]: 101.9 ± 0.019%
% Inhibition of butyrylcholinesterase [3]: 48.9% Inhibition
effect on BuChase activity under standard conditions [4]: no effect

CCCCOP(=O)(OCCCC)Oc1cccc(F)c1
Change in Absorbance at 412 nm/Minute (Normalized) (butyrylcholinesterase [1]): 0.696
Change in Absorbance at 412 nm/Minute (Not Normalized) (butyrylcholinesterase [1]): 0.468

CCCCCCP(=O)(OCCCC)Oc1ccccc1Cl (stereo not shown)
Change in Absorbance at 412 nm/Minute (Normalized) (butyrylcholinesterase [1]): 14.94
Change in Absorbance at 412 nm/Minute (Not Normalized) (butyrylcholinesterase [1]): 10.04

CCCCCOP(=O)(OCCCCC)Oc1ccccc1Cl [Di-n-pentyl-, 2-Chlorophenyl di-n-pentyl phosphate]
activity at 100 µM ([2]; read-out: % Activity ± SD (acetylcholinesterase activity relative to enzyme incubated with solvent)): 101.7 ± 0.03%
k, rate constant of inactivation of butyrylcholinesterase ± S.E.M [4]: 30.44 ± 3.3 min^−1 × 10^−2

O=P(Oc1ccccc1)(Oc1ccccc1)Oc1ccccc1Cl
inhibition at 100 µM (butyrylcholinesterase [1]; compound at 10^−4 M): 29.4%
inhibitory under standard conditions (butyrylcholinesterase [1]; standard conditions (10^−7M)): Not inhibitory

CCCCOP(=O)(OCCCC)Oc1ccccc1Br
Change in Absorbance at 412 nm/Minute (Normalized) (butyrylcholinesterase [1]): 1.366
Change in Absorbance at 412 nm/Minute (Not Normalized) (butyrylcholinesterase [1]): 0.918

CCCCCCNP(=O)(Oc1ccccc1Cl)Oc1ccccc1Cl
inhibition at 100 µM (butyrylcholinesterase [1]; compound at 10^−4 M): 73.9%
inhibitory under standard conditions (butyrylcholinesterase [1]; standard conditions (10^−7M)): Not inhibitory

CCCCOP(=O)(OCCCC)Oc1ccc(Cl)cc1 [Di-n-butyl-(4Cl), Di-n-butyl 4-chlorophenyl phosphate]
% Activity ± SD (acetylcholinesterase activity relative to enzyme incubated with solvent) [2]: 97.61 ± 0.006%
k, rate constant of inactivation of butyrylcholinesterase ± S.E.M [4]: 13.01 ± 2.0 min^−1 × 10^−2

CCCCOP(=O)(OCCCC)Oc1ccc(Br)cc1
Change in Absorbance at 412 nm/Minute (Normalized) (butyrylcholinesterase [1]): 0.737
Change in Absorbance at 412 nm/Minute (Not Normalized) (butyrylcholinesterase [1]): 0.495

CCCOP(=O)(OCCC)Oc1ccccc1Cl [Di-n-propyl-, 2-Chlorophenyl di-n-propyl phosphate]
% Activity ± SD (acetylcholinesterase activity relative to enzyme incubated with solvent) [2]: 97.38 ± 0.028%
k, rate constant of inactivation of butyrylcholinesterase ± S.E.M [4]: 20.21 ± 2.2 min^−1 × 10^−2

CCOP(=O)(OCC)Oc1ccccc1Cl [Di-ethyl-, 2-Chlorophenyl diethyl phosphate]
% Activity ± SD (acetylcholinesterase activity relative to enzyme incubated with solvent) [2]: 96.77 ± 0.019%
effect on AcChase activity, native gel (FIG. 1) (acetylcholinesterase): no effect
effect on BuChase activity, native gel (FIG. 2A) (butyrylcholinesterase [5]): nearly completely inhibited
covalent modification of BuChase (FIG. 2B) (butyrylcholinesterase [6]): covalently modified
k, rate constant of inactivation of butyrylcholinesterase ± S.E.M [4]: 6.64 ± 2.1 min^−1 × 10^−2

CCCCOP(=O)(OCCCC)Oc1cccc(Br)c1
Change in Absorbance at 412 nm/Minute (Normalized) (butyrylcholinesterase [1]): 6.220
Change in Absorbance at 412 nm/Minute (Not Normalized) (butyrylcholinesterase [1]): 4.18

CCCCOP(=O)(OCCCC)Oc1ccc([N+](=O)[O-])cc1
% Inhibition of BuChase, immediate (butyrylcholinesterase [1]; standard conditions (10^−7M)): 100% Inhibition (Immediate under standard conditions)

CC(C)COP(=O)(OCC(C)C)Oc1ccccc1Cl [Di-iso-butyl-, Di-i-butyl 2-Chlorophenyl phosphate]
% Activity ± SD (acetylcholinesterase activity relative to enzyme incubated with solvent) [2]: 96.18 ± 0.023%
k, rate constant of inactivation of butyrylcholinesterase ± S.E.M [4]: 60.83 ± 5.8 min^−1 × 10^−2

CCCCOP(=S)(OCCCC)Oc1ccccc1Cl
% inhibition of BuChase (butyrylcholinesterase [1]; compound at 10^−4 M): 14.6%
inhibitory under standard conditions (butyrylcholinesterase [1]; standard conditions (10^−7M)): Not Inhibitory

CCCCOP(=O)(OCCCC)Oc1ccccc1F
Change in Absorbance at 412 nm/Minute (Normalized) (butyrylcholinesterase [1]): 2.604
Change in Absorbance at 412 nm/Minute (Not Normalized) (butyrylcholinesterase [1]): 1.75

CCCCP(=O)(Oc1ccccc1Cl)Oc1ccccc1Cl
Change in Absorbance at 412 nm/Minute (Normalized) (butyrylcholinesterase [1]): 0.48
Change in Absorbance at 412 nm/Minute (Not Normalized) (butyrylcholinesterase [1]): 0.32

CCCCOP(=O)(OCCCC)Oc1ccc(Cl)cc1 [drawing 55]
Change in Absorbance at 412 nm/Minute (Normalized) (butyrylcholinesterase [1]): 0.338
Change in Absorbance at 412 nm/Minute (Not Normalized) (butyrylcholinesterase [1]): 0.227

CCCCCCNP(=O)(OCCCC)Oc1ccccc1Cl (stereo not shown)
Change in Absorbance at 412 nm/Minute (Normalized) (butyrylcholinesterase [1]): 1.024
Change in Absorbance at 412 nm/Minute (Not Normalized) (butyrylcholinesterase [1]): 0.688

CCCCOP(=O)(OCCCC)Oc1ccccc1C
type of inhibition (butyrylcholinesterase [1]): Reversible inhibitor: Ki = 2.1 μM

CCCCOP(=O)(Oc1ccc(Cl)cc1Cl)Oc1ccc(Cl)cc1Cl
inhibition at 100 µM (butyrylcholinesterase [1]; compound at 10^−4 M): 63.4%
inhibitory under standard conditions (butyrylcholinesterase [1]; standard conditions (10^−7M)): Not inhibitory

CC(C)OP(=O)(Oc1ccccc1Cl)OC(C)C [Di-iso-propyl-, 2-Chlorophenyl di-i-propyl phosphate]
% Activity ± SD (acetylcholinesterase activity relative to enzyme incubated with solvent) [2]: 97.82 ± 0.045%
% Inhibition of butyrylcholinesterase [3]: 85.3% Inhibition
effect on BuChase activity under standard conditions [4]: no effect
